Measured values taken from ChEMBL document CHEMBL4028823, “Pharmacological property optimization for allosteric ligands: A medicinal chemistry perspective” (Bioorg Med Chem Lett, 2017).

What was measured:
[1] = target: T1, Tyrosine-protein kinase BTK (Homo sapiens, UniProt Q06187); assay: Binding affinity to recombinant full length BTK (unknown origin) assessed as residence time by fluorescent tracer based TR-FRET assay
[2] = target: T1, Tyrosine-protein kinase BTK; assay: Ratio of Kinact to ki for recombinant full length BTK (unknown origin)
[3] = target: T2, Muscarinic acetylcholine receptor M2 (Homo sapiens, UniProt P08172); assay: Displacement of [3H]NMS from wild-type human mAChR2 expressed in Flp-In-CHO cell membranes in presence of mAChR2 agonist acetylcholine after 90 mins by scintillation counting analysis
T2 sequence (P08172 whole entry): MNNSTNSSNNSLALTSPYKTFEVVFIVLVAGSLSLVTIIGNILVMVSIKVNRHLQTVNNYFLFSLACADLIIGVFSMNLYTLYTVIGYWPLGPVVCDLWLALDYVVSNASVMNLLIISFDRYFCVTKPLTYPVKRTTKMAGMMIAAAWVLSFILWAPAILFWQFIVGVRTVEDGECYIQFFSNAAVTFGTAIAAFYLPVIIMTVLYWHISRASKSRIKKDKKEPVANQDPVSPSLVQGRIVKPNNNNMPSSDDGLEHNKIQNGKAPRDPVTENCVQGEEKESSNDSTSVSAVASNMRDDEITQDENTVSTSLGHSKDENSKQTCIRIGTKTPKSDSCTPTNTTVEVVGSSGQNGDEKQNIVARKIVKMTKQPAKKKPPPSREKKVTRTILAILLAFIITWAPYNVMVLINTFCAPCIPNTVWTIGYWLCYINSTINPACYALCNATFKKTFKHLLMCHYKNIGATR

[4] = target: T2, Muscarinic acetylcholine receptor M2; assay: Displacement of [3H]NMS from wild-type human mAChR2 expressed in Flp-in-CHO cell membranes in presence of mAChR2 agonist xanomeline after 90 mins by scintillation counting analysis
[5] = target: T3, Muscarinic acetylcholine receptor M1 (Homo sapiens) (UniProt P11229); assay: Displacement of [3H]NMS from recombinant human mAChR1 expressed in CHO cells; type: cell-based
T3 sequence (whole entry): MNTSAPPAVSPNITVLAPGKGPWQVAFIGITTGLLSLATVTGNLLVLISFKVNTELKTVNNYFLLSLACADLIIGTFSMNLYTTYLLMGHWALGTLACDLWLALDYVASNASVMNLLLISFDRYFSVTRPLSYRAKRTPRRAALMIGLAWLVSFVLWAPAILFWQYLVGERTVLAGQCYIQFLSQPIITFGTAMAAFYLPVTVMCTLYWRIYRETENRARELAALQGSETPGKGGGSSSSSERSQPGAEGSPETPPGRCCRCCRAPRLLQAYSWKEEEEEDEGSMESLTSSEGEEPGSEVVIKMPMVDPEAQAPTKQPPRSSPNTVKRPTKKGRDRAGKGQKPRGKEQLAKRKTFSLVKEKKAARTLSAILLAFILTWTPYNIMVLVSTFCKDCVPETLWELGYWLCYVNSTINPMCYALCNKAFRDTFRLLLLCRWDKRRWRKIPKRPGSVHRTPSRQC

[6] = target: T4, Glycine receptor subunit alpha-1 (Homo sapiens, UniProt P23415); assay: Positive allosteric modulatory activity at recombinant human glycine alpha1 receptor expressed in HEK293 cells assessed as potentiation of glycine-induced response at -50 mV holding potential in presence of fructose by whole cell patch clamp method; type: cell-based
T4 sequence (P23415 whole entry): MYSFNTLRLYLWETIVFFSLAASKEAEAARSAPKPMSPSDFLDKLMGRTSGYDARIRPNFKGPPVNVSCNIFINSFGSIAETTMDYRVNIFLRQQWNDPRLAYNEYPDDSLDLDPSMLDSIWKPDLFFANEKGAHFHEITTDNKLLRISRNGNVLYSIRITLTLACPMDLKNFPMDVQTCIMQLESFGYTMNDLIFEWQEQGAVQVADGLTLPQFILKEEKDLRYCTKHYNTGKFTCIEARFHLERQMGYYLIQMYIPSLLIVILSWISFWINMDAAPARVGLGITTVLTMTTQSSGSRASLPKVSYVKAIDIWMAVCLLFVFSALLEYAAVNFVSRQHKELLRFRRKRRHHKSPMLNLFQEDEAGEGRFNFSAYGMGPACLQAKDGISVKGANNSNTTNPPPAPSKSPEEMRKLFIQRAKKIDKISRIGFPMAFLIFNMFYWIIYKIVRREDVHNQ

[7] = target: Metabotropic glutamate receptor 5 (Homo sapiens) (UniProt P41594); assay: Negative allosteric modulation of mGlu5 receptor (unknown origin) expressed in HEK293A cells assessed as inhibition of glutamate induced-calcium mobilization by Fluo-4 AM dye based fluorescence assay; type: functional, cell-based
[8] = target: D(2) dopamine receptor (Homo sapiens) (UniProt P14416)
Description: Agonist activity at D2 long receptor (unknown origin) expressed in Flp-In-CHO cells assessed as change in transduction coefficient by measuring induction of ERK1/2 phosphorylation after 5 mins by Alphascreen assay

[9] = target: D(2) dopamine receptor (Homo sapiens) (UniProt P14416); remark: listed apart in the source
Description: Agonist activity at D2 long receptor (unknown origin) expressed in Flp-In-CHO cells assessed as change in transduction coefficient by measuring cellular impedance measured immediately at 15 secs interval for 90 mins by xCELLigence assay

[10] = target: D(2) dopamine receptor (Homo sapiens) (UniProt P14416); remark: listed apart in the source
Description: Agonist activity at D2 long receptor (unknown origin) expressed in Flp-In-CHO cells co-expressing Rluc8-tagged GalphaoB assessed as change in transduction coefficient by measuring GalphaoB activation in presence of coelenterazine by BRET assay

[11] = target: D(2) dopamine receptor (Homo sapiens) (UniProt P14416); remark: listed apart in the source
Description: Agonist activity at D2 long receptor (unknown origin) expressed in Flp-In-CHO cells assessed as change in transduction coefficient by measuring inhibition of forskolin-induced cAMP production measured after 5 mins in presence of coelenterazine by BRET assay

[12] = target: D(2) dopamine receptor (Homo sapiens) (UniProt P14416); remark: listed apart in the source
Description: Displacement of [3H]spiperone from D2 long receptor (unknown origin) expressed in Flp-In-CHO cell membranes assessed as transduction coefficient by measuring dissociation half life after 5 mins by liquid scintillation counter method

[13] = target: T5, C-X-C chemokine receptor type 3 (Homo sapiens) (UniProt P49682); assay: Displacement of [3H]RAMX3 from CXCR3 (unknown origin) expressed in HEK cells after 1 hrs by microbeta scintillation counter; type: cell-based
T5 sequence (whole entry): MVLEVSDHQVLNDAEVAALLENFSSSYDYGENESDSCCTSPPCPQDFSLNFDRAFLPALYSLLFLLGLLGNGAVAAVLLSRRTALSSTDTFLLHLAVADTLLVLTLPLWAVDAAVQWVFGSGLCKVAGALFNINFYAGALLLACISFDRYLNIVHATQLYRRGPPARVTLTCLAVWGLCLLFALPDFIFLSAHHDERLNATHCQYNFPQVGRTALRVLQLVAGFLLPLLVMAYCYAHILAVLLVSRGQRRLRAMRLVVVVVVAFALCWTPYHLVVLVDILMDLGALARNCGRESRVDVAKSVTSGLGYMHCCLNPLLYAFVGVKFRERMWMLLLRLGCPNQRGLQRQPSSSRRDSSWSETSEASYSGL

[14] = target: D(2) dopamine receptor (Homo sapiens) (UniProt P14416); remark: listed apart in the source
Description: Agonist activity at Rluc8-tagged D2 long receptor (unknown origin) expressed in Flp-In-CHO cells co-expressing YFP-tagged beta-arrestin2 assessed as change in transduction coefficient by measuring beta-arrestin2 recruitment measured after 5 mins by BRET assay

[15] = target: D(2) dopamine receptor (Homo sapiens) (UniProt P14416); remark: listed apart in the source
Description: Agonist activity at D2 long receptor (unknown origin) expressed in Flp-In-CHO cells co-expressing Rluc8-tagged Galphai1 assessed as change in transduction coefficient by measuring Galphai1 activation after 5 mins in presence of coelenterazine by BRET assay

[16] = target: T3, Muscarinic acetylcholine receptor M1 (Homo sapiens); assay: Displacement of [3H]NMS from recombinant human mAChR1 expressed in Flp-In-CHO cells after 1 hr by microbeta scintillation counting analysis; type: cell-based

D(2) dopamine receptor (Homo sapiens), sequence (P14416 whole entry): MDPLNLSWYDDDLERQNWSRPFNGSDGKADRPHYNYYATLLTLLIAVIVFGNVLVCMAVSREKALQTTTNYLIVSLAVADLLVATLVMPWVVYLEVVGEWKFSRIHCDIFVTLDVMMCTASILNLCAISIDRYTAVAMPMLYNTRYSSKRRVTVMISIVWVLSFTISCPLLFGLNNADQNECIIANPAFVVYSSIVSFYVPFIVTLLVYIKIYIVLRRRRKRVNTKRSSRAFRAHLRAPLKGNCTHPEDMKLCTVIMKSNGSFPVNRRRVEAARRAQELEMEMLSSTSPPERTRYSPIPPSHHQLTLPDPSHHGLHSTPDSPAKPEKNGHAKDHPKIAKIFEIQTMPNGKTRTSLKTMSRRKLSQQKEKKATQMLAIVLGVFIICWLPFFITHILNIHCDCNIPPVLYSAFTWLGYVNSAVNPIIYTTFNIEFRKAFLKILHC
T1 sequence (Q06187 whole entry): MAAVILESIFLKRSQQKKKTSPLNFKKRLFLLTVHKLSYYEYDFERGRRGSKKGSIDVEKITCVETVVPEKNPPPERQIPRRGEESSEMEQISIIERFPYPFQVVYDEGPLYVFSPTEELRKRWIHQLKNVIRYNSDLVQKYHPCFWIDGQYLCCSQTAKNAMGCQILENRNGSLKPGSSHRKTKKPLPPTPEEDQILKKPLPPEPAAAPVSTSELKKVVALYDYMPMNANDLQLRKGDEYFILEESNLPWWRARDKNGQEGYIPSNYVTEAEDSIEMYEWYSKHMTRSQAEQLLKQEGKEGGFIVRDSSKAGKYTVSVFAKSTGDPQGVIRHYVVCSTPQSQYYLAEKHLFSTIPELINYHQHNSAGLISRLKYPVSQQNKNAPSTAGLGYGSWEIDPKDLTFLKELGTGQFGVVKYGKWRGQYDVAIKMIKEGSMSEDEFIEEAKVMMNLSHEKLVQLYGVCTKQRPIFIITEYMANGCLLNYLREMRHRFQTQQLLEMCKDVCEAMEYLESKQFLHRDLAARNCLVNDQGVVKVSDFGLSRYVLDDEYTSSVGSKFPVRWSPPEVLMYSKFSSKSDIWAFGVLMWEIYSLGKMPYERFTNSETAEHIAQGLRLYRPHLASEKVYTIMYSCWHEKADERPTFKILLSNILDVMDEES
Metabotropic glutamate receptor 5 (Homo sapiens), sequence (P41594 21-1212 limits assumed): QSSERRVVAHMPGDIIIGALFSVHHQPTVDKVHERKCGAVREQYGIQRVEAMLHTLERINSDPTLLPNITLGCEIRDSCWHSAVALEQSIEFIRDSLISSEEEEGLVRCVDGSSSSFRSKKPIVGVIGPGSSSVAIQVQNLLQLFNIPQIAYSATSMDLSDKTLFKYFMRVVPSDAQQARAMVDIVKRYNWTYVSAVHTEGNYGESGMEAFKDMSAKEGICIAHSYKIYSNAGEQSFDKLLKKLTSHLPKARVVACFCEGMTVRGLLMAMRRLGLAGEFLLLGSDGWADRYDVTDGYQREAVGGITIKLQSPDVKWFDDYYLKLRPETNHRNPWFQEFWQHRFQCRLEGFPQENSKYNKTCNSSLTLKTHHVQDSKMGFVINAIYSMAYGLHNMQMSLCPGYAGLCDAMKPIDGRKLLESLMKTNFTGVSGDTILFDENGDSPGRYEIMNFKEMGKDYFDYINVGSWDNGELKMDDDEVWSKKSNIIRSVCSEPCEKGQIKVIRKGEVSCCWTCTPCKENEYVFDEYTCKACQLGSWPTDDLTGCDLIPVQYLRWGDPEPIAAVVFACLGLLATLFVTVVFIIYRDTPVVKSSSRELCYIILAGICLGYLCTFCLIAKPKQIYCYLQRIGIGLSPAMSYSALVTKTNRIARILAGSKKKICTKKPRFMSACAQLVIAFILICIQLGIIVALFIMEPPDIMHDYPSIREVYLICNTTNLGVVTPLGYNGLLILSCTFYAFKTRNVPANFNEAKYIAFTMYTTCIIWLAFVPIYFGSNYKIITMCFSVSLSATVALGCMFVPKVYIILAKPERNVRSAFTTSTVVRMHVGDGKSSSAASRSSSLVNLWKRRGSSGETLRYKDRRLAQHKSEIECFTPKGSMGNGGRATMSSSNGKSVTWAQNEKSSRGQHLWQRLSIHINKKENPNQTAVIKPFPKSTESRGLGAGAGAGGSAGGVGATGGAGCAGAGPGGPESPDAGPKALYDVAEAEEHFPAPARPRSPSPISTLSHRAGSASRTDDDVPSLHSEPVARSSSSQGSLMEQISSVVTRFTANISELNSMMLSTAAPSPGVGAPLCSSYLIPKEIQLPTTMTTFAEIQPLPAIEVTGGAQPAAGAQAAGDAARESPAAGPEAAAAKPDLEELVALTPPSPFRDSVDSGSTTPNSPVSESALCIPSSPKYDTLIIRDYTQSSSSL

CC(C)(/C=C(\C#N)C(=O)N1CCC[C@@H]1Cn1nc(-c2ccc(Oc3ccccc3)cc2F)c2c(N)ncnc21)NC1COC1
TIME [1]: 167 h | Ratio [2]: 0.4

COc1nc2sc(C(=O)NC3CC3)c(N)c2c(C)c1Cl
Ki [3]: 3.16 µM | Ki [4]: 0.158 µM

O=C(O)c1cn(Cc2ccc(N=C=S)cc2)c2ccccc2c1=O
pKb [5]: 5.2

O=C(CO)[C@@H](O)[C@H](O)[C@H](O)CO [FRUCTOSE]
EC50 [6]: 12.6 µM

C#CCOc1ccc(C(=O)c2ccc(OCCOc3cccc(C#Cc4csc(C)n4)c3)cc2)cc1
pKb [7]: 6.1

CN(C)C(=O)N[C@H]1CC[C@H](CCN2CCN(c3cccc(Cl)c3Cl)CC2)CC1
deltalog(Tau/KA) [8]: -1.1 | deltalog(Tau/KA) [9]: 0.3 | deltalog(Tau/KA) [10]: 0.7 | deltalog(Tau/KA) [11]: 0.2 | T1/2 [12]: 1.4 min

CCOc1cc(CC(=O)N(Cc2ccc(OC)c(B(O)O)c2)C(C)c2nc3ncccc3c(=O)n2-c2ccc(C)cc2)ccc1F (stereo not given)
pKb [13]: 6.1

O=c1[nH]c2cccc(N3CCN(Cc4cccc(-c5ccccc5)c4)CC3)c2o1
deltalog(Tau/KA) [8]: -1.2 | deltalog(Tau/KA) [9]: -0.3 | deltalog(Tau/KA) [10]: 0.3 | deltalog(Tau/KA) [11]: -0.2 | T1/2 [12]: 86 min | deltalog(Tau/KA) [14]: -0.6 | deltalog(Tau/KA) [15]: 1.4

Cc1c(Cc2ccc(-c3cnn(C)c3)nc2)cc2c(=O)n([C@H]3CCCC[C@@H]3O)cnc2c1C
pKb [16]: 5.1

Cn1cc(-c2ccc(Cc3ccc4ncn([C@H]5CCCC[C@@H]5O)c(=O)c4c3)cn2)cn1
pKb [16]: 4.3

Cc1cc2ncn([C@H]3CCCC[C@@H]3O)c(=O)c2cc1Cc1ccc(-c2cnn(C)c2)nc1
pKb [16]: 5.2

Cn1cc(-c2ccc(Cc3cc4c(=O)n([C@H]5CCCC[C@@H]5O)cnc4c4ccccc34)cn2)cn1
pKb [16]: 5.8

COc1ccc(Cn2cc(C(=O)O)c(=O)c3ccccc32)cc1
pKb [16]: 4.8
